The numbers were not newly measured in paper PMC4404702 (Molecular imaging and biology : MIB : the official …, 2014), which cites them from elsewhere.

The target of data set [1] is σ1. The note with it: read-out: Ki−σ1.
Data set [2] deals with σ2. The following applies: read-out: Ki−σ2.

In general, Ki refers to a dissociation constant, usually derived from enzyme kinetics or from competition with a known ligand. As for `O=C(Cc1cccc(Br)c1)NCc1ccc(F)cc1` [YUN-143, N-(4′-fluorobenzyl)-4-(3-bromophenyl)acetamide], the inhibition constant Ki in data set [1] is 1.2 ± 0.2 nM; in data set [2], 6.1 ± 1.5 nM.
